From US10746749B2, “Ellagic acid formulations for use in coagulation assays” (Abbott Point of Care Inc., priority 2014, dated 2020)

Tests used:
[1] = cited from earlier work
whole blood = test: PT assay on sensor with SBQ-PVA immobilized substrate, heparin-spiked whole blood
Method: FIGS. 10 and 11 exemplify this concept as follows. A coagulation sensor was directly printed either with a large (FIG. 10) or small (FIG. 11) SBQ-PVA immobilized coagulation substrate. Subsequently, a PT coagulation activator was printed on top of the immobilized substrate matrix. These sensors were then tested with appropriate fluids to assess coagulation time. As with the results from FIGS. 5 and 6, one benefit of printing more of the immobilized substrate matrix is that the increased amount of immobilized substrate matrix led to an increase in pA. Also, when heparin is spiked into the whole blood sample, the clotting times are not as extended as they are expected to be (FIGS. 10 and 11 (response curves 181) (heparin spike) should be more similar to response curves 182 (abnormally long control fluid) clotting times, but are actually behaving more like whole blood without heparin, (response curves 183)). […] Further, applying a larger amount of the immobilizing matrix results in a greater neutralizing effect (e.g., compare the bias between whole blood and whole blood with heparin in FIGS. 10 and 11). […] In both FIGS. 10 and 11, the heparin spiked blood behaves more like unaltered whole blood than it does like an abnormally long control fluid, reflecting that there is an interferent/heparin neutralizing effect.

Row | Compound | solubility in methanol [1] | extension of PT clotting time versus whole blood (whole blood; heparin 1 IU/mL, smaller print amount of SBQ-PVA neutralizing matrix (FIG. 11)) [%] | extension of PT clotting time versus whole blood (whole blood; heparin added to 1 IU/mL, large SBQ-PVA matrix print (FIG. 10)) [%]
1 | O=c1oc2c(O)c(O)cc3c(=O)oc4c(O)c(O)cc1c4c23 [ellagic acid] | slightly soluble |  | 
2 | heparin |  | 55 | 14
